Experimental data: ChEMBL document CHEMBL1909046, “DrugMatrix in vitro pharmacology data”

How the values were obtained:
[1] = DRUGMATRIX: Tumor Necrosis Factor (TNF), Non-Selective radioligand binding (ligand: [125I] TNF-alpha); format: cell membranes, Membrane; conditions: u-937; Not Active = under 50% inhibition at 10 µM
[2] = biological target: Beta-1 adrenergic receptor (Homo sapiens, UniProt P08588); test: DRUGMATRIX: Adrenergic beta1 radioligand binding (ligand: [125I] Cyanopindolol); format: cell membranes, CHO-K1, Membrane; conditions: cho-k1; Not Active = under 50% inhibition at 10 µM
[3] = biological target: Beta-3 adrenergic receptor (Homo sapiens, UniProt P13945); test: DRUGMATRIX: Adrenergic beta3 radioligand binding (ligand: [125I] Cyanopindolol); format: cell membranes, HEK293, Membrane; conditions: hek293; Not Active = under 50% inhibition at 10 µM
[4] = biological target: T1, Alpha-2A adrenergic receptor (Homo sapiens, UniProt P08913); format: cell membranes, Sf9, Membrane; conditions: sf9; also: in other assays of this panel Not Active means under 50% inhibition at 10 µM
T1 sequence (P08913 whole entry): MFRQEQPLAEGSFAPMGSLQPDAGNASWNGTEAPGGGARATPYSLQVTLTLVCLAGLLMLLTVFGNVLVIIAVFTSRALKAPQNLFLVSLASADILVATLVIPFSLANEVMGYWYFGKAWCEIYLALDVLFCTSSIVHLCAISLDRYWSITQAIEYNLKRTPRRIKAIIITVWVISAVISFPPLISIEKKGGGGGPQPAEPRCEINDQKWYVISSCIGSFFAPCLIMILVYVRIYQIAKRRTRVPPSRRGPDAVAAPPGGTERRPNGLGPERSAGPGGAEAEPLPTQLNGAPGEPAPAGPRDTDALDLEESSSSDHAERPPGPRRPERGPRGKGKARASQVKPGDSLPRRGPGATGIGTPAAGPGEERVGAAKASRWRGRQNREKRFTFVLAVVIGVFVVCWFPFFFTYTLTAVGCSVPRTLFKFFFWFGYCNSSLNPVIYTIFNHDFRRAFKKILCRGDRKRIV

[5] = biological target: T2, Caspase-1 (Homo sapiens, UniProt P29466); set-up: species or system Escherichia coli;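 also: Caspase-1 enzyme inhibition assay with a peptide substrate; in other assays of this panel Not Active means under 50% inhibition at 10 µM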
T2 sequence (P29466 whole entry): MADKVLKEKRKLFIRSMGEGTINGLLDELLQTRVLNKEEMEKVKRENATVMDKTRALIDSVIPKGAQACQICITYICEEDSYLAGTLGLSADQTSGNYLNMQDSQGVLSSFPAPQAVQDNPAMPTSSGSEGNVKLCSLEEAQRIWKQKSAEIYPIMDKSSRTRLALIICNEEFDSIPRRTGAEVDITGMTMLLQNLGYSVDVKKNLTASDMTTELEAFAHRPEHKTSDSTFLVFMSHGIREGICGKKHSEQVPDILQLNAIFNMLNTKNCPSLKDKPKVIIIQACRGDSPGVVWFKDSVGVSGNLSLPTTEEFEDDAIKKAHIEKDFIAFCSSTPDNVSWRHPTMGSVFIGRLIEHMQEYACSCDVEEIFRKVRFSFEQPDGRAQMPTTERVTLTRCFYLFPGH

[6] = DRUGMATRIX: Calcium Channel Type L, Dihydropyridine radioligand binding (ligand: [3H] Nitrendipine); format: cell membranes, Rattus norvegicus, Wistar, Cerebral cortex, Membrane; conditions: Not Active = under 50% inhibition at 10 µM

Sequence of Beta-1 adrenergic receptor (P08588 whole entry): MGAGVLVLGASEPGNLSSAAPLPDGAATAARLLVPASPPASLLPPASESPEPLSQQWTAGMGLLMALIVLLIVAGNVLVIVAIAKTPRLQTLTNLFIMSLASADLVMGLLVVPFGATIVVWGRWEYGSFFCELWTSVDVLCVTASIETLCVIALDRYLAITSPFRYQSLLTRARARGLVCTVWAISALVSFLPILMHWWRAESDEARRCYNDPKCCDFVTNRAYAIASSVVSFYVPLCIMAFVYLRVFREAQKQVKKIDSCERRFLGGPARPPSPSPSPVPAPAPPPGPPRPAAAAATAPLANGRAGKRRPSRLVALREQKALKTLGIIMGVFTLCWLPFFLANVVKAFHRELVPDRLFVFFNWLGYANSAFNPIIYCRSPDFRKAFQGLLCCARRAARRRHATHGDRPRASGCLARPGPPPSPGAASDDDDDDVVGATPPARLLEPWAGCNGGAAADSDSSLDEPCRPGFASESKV
Sequence of Beta-3 adrenergic receptor (P13945 whole entry): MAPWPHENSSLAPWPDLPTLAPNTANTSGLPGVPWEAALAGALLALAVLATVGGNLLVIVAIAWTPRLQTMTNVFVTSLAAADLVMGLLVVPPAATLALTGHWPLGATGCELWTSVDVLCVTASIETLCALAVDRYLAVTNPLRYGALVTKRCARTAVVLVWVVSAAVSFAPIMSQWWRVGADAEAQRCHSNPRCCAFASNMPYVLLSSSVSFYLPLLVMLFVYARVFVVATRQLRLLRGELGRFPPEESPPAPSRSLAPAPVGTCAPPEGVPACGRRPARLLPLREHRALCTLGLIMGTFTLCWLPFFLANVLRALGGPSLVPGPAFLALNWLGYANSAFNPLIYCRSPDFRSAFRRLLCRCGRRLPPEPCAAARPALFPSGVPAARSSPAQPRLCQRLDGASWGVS

C[C@]12CCC(=O)C=C1CC[C@@H]1[C@@H]2[C@@H](O)C[C@@]2(C)[C@H]1CC[C@]2(O)C(=O)CO [HYDROCORTISONE]
Not Active: IC50 [1] | Ki [1] | IC50 [2] | IC50 [3] | IC50 [4] | IC50 [5] | IC50 [6] | Ki [6]

Nc1nc(N)nc(NC2CC2)n1 [CYROMAZINE]
Not Active: IC50 [1] | Ki [1] | IC50 [2] | IC50 [3] | IC50 [4] | IC50 [5] | IC50 [6] | Ki [6]

OCCO [ETHYLENE GLYCOL]
Not Active: IC50 [1] | Ki [1] | IC50 [2] | IC50 [3] | IC50 [4] | IC50 [5] | IC50 [6] | Ki [6]

CCN[C@@H](C)Cc1cccc(C(F)(F)F)c1 [DEXFENFLURAMINE]
Not Active: IC50 [1] | Ki [1] | IC50 [2] | IC50 [3] | IC50 [4] | IC50 [5] | IC50 [6] | Ki [6]

C[C@]12C/C(=C/O)C(=O)C[C@@H]1CC[C@@H]1[C@@H]2CC[C@@]2(C)[C@H]1CC[C@]2(C)O [OXYMETHOLONE]
Not Active: IC50 [1] | Ki [1] | IC50 [2] | IC50 [3] | IC50 [4] | IC50 [5] | IC50 [6] | Ki [6]

C=C(CC)C(=O)c1ccc(OCC(=O)O)c(Cl)c1Cl [ETHACRYNIC ACID]
Not Active: IC50 [1] | Ki [1] | IC50 [2] | IC50 [3] | IC50 [4] | IC50 [5] | IC50 [6] | Ki [6]

CCOC(=O)[C@H](CCc1ccccc1)N[C@@H](C)C(=O)N1Cc2ccccc2C[C@H]1C(=O)O
Not Active: IC50 [1] | Ki [1] | IC50 [2] | IC50 [3] | IC50 [4] | IC50 [5] | IC50 [6] | Ki [6]

CCc1oc2ccccc2c1C(=O)c1cc(Br)c(O)c(Br)c1 [BENZBROMARONE]
Not Active: IC50 [1] | Ki [1] | IC50 [2] | IC50 [3] | IC50 [4] | IC50 [5] | IC50 [6] | Ki [6]

CC[C@H]1OC(=O)[C@H](C)[C@@H](O[C@H]2C[C@@](C)(OC)[C@@H](O)[C@H](C)O2)[C@H](C)[C@@H](O[C@@H]2O[C@H](C)C[C@H](N(C)C)[C@H]2O)[C@](C)(OC)C[C@@H](C)C(=O)[C@H](C)[C@@H](O)[C@]1(C)O [CLARITHROMYCIN]
Not Active: IC50 [1] | Ki [1] | IC50 [2] | IC50 [3] | IC50 [4] | IC50 [5] | IC50 [6] | Ki [6]

CC(=O)O[C@]1(C(C)=O)CC[C@H]2[C@@H]3C=C(C)C4=CC(=O)CC[C@]4(C)[C@H]3CC[C@@]21C [MEGESTROL ACETATE]
Not Active: IC50 [1] | Ki [1] | IC50 [2] | IC50 [3] | IC50 [4] | IC50 [5] | IC50 [6] | Ki [6]

CC(=O)O[C@]1(C(C)=O)CC[C@H]2[C@@H]3C=C(Cl)C4=CC(=O)[C@@H]5C[C@@H]5[C@]4(C)[C@H]3CC[C@@]21C [CYPROTERONE ACETATE]
Not Active: IC50 [1] | Ki [1] | IC50 [2] | IC50 [3] | IC50 [4] | IC50 [5] | IC50 [6] | Ki [6]

CC(C)(Oc1ccc(C2CC2(Cl)Cl)cc1)C(=O)O (centres undefined) [CIPROFIBRATE]
Not Active: IC50 [1] | Ki [1] | IC50 [2] | IC50 [3] | IC50 [4] | IC50 [5] | IC50 [6] | Ki [6]

CC(C)(C)c1ccc(S(=O)(=O)/C=C/C#N)cc1 [BAY-11-7085]
Not Active: IC50 [1] | Ki [1] | IC50 [2] | IC50 [3] | IC50 [4] | IC50 [5] | IC50 [6] | Ki [6]

Cc1cccc(Nc2ccccc2C(=O)O)c1C [MEFENAMIC ACID]
Not Active: IC50 [1] | Ki [1] | IC50 [2] | IC50 [3] | IC50 [4] | IC50 [5] | IC50 [6] | Ki [6]

NC[C@@H]1O[C@H](O[C@H]2[C@@H](O)[C@H](O[C@@H]3[C@@H](O)[C@H](N)C[C@H](N)[C@H]3O[C@H]3O[C@H](CN)[C@@H](O)[C@H](O)[C@H]3N)O[C@@H]2CO)[C@H](N)[C@@H](O)[C@@H]1O [FRAMYCETIN]
Not Active: IC50 [1] | Ki [1] | IC50 [2] | IC50 [3] | IC50 [4] | IC50 [5] | IC50 [6] | Ki [6]

O=C(O)c1cccnc1 [NIACIN]
Not Active: IC50 [1] | Ki [1] | IC50 [2] | IC50 [3] | IC50 [4] | IC50 [5] | IC50 [6] | Ki [6]

CC[C@]1(O)CC[C@H]2[C@@H]3CCC4=CCCC[C@@H]4[C@H]3CC[C@@]21C
Not Active: IC50 [1] | Ki [1] | IC50 [2] | IC50 [3] | IC50 [4] | IC50 [5] | IC50 [6] | Ki [6]

COc1cc(CNC(=O)CCCC/C=C/C(C)C)ccc1O [CAPSAICIN]
Not Active: IC50 [1] | Ki [1] | IC50 [2] | IC50 [3] | IC50 [4] | IC50 [5] | IC50 [6] | Ki [6]

CN(C(=O)CCCOc1ccc2[nH]c(=O)ccc2c1)C1CCCCC1 [CILOSTAMIDE]
Not Active: IC50 [1] | Ki [1] | IC50 [2] | IC50 [3] | IC50 [4] | IC50 [5] | IC50 [6] | Ki [6]

CC(=O)OCC(CCn1cnc2cnc(N)nc21)COC(C)=O [FAMCICLOVIR]
Not Active: IC50 [1] | Ki [1] | IC50 [2] | IC50 [3] | IC50 [4] | IC50 [5] | IC50 [6] | Ki [6]

OCCN1CCN(CCCN2c3ccccc3Sc3ccc(Cl)cc32)CC1 [PERPHENAZINE]
Not Active: IC50 [1] | Ki [1] | IC50 [2] | IC50 [3] | IC50 [4] | IC50 [5] | IC50 [6] | Ki [6]

COC(=O)c1ccccc1O [METHYL SALICYLATE]
Not Active: IC50 [1] | Ki [1] | IC50 [2] | IC50 [3] | IC50 [4] | IC50 [5] | IC50 [6] | Ki [6]

C[C@H]([C@](O)(Cn1cncn1)c1ccc(F)cc1F)S(C)(=O)=O [GENACONAZOLE]
Not Active: IC50 [1] | Ki [1] | IC50 [2] | IC50 [3] | IC50 [4] | IC50 [5] | IC50 [6] | Ki [6]

Clc1cc2c(cc1Cl)Oc1cc(Cl)c(Cl)cc1O2 [2,3,7,8-TETRACHLORODIBENZO-P-DIOXIN]
Not Active: IC50 [1] | Ki [1] | IC50 [2] | IC50 [3] | IC50 [4] | IC50 [5] | IC50 [6] | Ki [6]

Nn1nnc2ccccc21
Not Active: IC50 [1] | Ki [1] | IC50 [2] | IC50 [3] | IC50 [4] | IC50 [5] | IC50 [6] | Ki [6]

COc1ccccc1OCC(O)COC(N)=O (centres undefined) [METHOCARBAMOL]
Not Active: IC50 [1] | Ki [1] | IC50 [2] | IC50 [3] | IC50 [4] | IC50 [5] | IC50 [6] | Ki [6]

CC(C(=O)O)c1ccc(-c2ccccc2)c(F)c1 (centres undefined) [FLURBIPROFEN]
Not Active: IC50 [1] | Ki [1] | IC50 [2] | IC50 [3] | IC50 [4] | IC50 [5] | IC50 [6] | Ki [6]

Cc1c(F)c(N2CCNC(C)C2)cc2c1c(=O)c(C(=O)O)cn2C1CC1 (centres undefined) [GREPAFLOXACIN]
Not Active: IC50 [1] | Ki [1] | IC50 [2] | IC50 [3] | IC50 [4] | IC50 [5] | IC50 [6] | Ki [6]
